From paper PMC11374673, “Discovery of isoquinoline sulfonamides as allosteric gyrase inhibitors with activity against fluoroquinolone-resistant bacteria” (Nature Chemistry, 2024) come the findings set out here.

Series [1] concerns sheep blood cells. The series can be described thus: Haemolytic activity. Format: cell-based. To be noted: 20 h incubation with sheep blood cells. The protocol:
Whole defibrinated sheep blood (10631715, Fisher Scientific) was centrifuged (400g) for 15 min at 4 °C. The supernatant was discarded and the remaining blood cell suspension was mixed with PBS and centrifuged (400g) for 15 min at 4 °C. Washing cycles were repeated at least three times, until the supernatant was clear after centrifugation. The packed blood cells were diluted 25-fold in PBS with 0.002% polysorbate 80. Test compounds were serially diluted twofold in U-bottom polypropylene 96-well microtitre plates in PBS with 0.002% polysorbate 80 (75 µl). An equal volume (75 µl) of the blood cell suspension was added to all wells. […]. The well plates were incubated for 20 h at 37 °C with continuous shaking (500 r.p.m.). After incubation, plates were centrifuged (800g) for 5 min, and 25 µl of supernatant was transferred to a clear UV-star flat-bottom polystyrene 96-well plate containing 100 µl ultrapure water per well. Absorption was measured at 415 nm with a Spark multimode microplate reader (Tecan). Data were corrected for the background response of 0.5% DMSO in the presence of cells with no antibiotic and normalized using the absorbance of 0.1% Triton X-100 with blood cells, as 100% haemolytic activity.

Series [2] addresses T1, P. aeruginosa gyrase (Pseudomonas aeruginosa, UniProt P48372).
T1 construct: purchased Inspiralis Ltd. PAG1001
The series can be described thus: Gyrase supercoiling inhibition. Format: biochemical. The protocol:
(§1) Of this stock solution, 27 µl was aliquoted for each reaction in 1.5 ml Eppendorf tubes and supplemented with 0.6 µl of the appropriate compound dilution or corresponding solvent with a final DMSO concentration of 2%. The reactions were started with 3 µl of enzyme (1 U for WT gyrase retrieved from Inspiralis Limited or 25–30 nM gyrase variants purified in house) in dilution buffer (50 mM Tris–HCl (pH 7.5), 100 mM KCl, 2 mM DTT, 1 mM EDTA and 50% (wt/vol) glycerol) for a final volume of 30 µl. Reactions were run at 37 °C for 30 min and stopped with the addition of 30 µl STEB buffer (40% (wt/vol) sucrose, 100 mM Tris–HCl pH 8, 100 mM EDTA, 0.5 mg ml^−1 bromophenol blue) and 30 µl of a chloroform:isoamyl alcohol solution (24:1 vol/vol). After brief vortexing and centrifugation at 2,300g for 1 min, 20 µl of the aqueous phase was loaded onto 1% (wt/vol) agarose gels in TAE (Tris–acetate […]) gel. The gels were run at 85 V for 2 h followed by staining (15 min) in 1 µg ml^−1 ethidium bromide and destaining (5–10 min) in water. DNA was visualized (602/50, UV Trans, auto optimal exposure) with a ChemiDoc MP (Bio-Rad Laboratories Inc., equipped with ImageLab Touch Software v2.0.0.27) and the percentage of supercoiled DNA relative to the total amount material per lane was determined with ImageLab 6.1 software (Bio-Rad Laboratories Inc.) or ImageJ[47] software. […]

The target in series [3] is (UniProt Q2FCU6). The series can be described thus: Gyrase supercoiling inhibition. Format: biochemical, Acinetobacter baumannii. To be noted: read-out: IC50 supercoiling, A. baumannii gyrase. The protocol: as §1
Series [4] concerns E. coli W3110. The series can be described thus: Time-kill assay.
Description: From glycerol stocks, bacterial strains were cultured on blood agar plates by overnight incubation at 37 °C. Subsequently, a single colony was cultured in TSB overnight at 37 °C. The culture was diluted 100-fold in fresh CAMHB and grown until early exponential phase (OD600 of 0.25) followed by 100-fold dilution in media. The culture was split in separate culture tubes containing 2 ml. […] The supernatant was discarded and pellets were washed once with filter-sterilized PBS, then resuspended in an equal volume of fresh buffer and samples were tenfold serially diluted until a 10^5 dilution. Then, 10 µl of the appropriate dilutions were inoculated on LB agar plates in technical duplicates, subsequently allowed to evaporate and incubated at 37 °C for 18 h. The colonies were counted and used to calculate the colony forming unit (c.f.u.) per ml remaining in the original culture by taking the dilution factors into account. The experiment was performed in biological duplicates.
In series [5] the target is T2, E. coli GyrA S97L/GyrB gyrase (Escherichia coli, UniProt P0AES4, S97L).
T2 construct: represents the first full-length E. coli gyrase structure in complex with an intact DNA molecule; 10xHis; 2xStrep (Twin-Strep); made in house
Description: Gyrase supercoiling inhibition, GyrA S97L variant. Format: biochemical. The protocol: as §1

Series [6] has as its target T3, E. coli gyrase (Escherichia coli, UniProt P0AES4). The series can be described thus: Time course of CIP- and Ca2+-mediated DNA cleavage. Format: biochemical. Conditions: 5 µM LEI-800. The protocol:
Time courses of CIP- and Ca^2+-mediated DNA cleavage were performed based on a previously published protocol. E. coli gyrase (200 nM) was incubated at 25 °C in 360 µl reactions with assay buffer (35 mM Tris–HCl (pH 7.5), 24 mM KCl, 4 mM MgCl2, 2 mM DTT, 1.8 mM spermidine, 1 mM ATP, 6.5% (wt/vol) glycerol and 0.1 mg ml^−1 albumin) and 500 ng supercoiled pBR322 DNA (Inspiralis Ltd.). For CIP-induced cleavage, 5 µM […] into the master mix. For Ca^2+-induced cleavage, the assay buffer was supplemented with 5 mM CaCl2. […] At selected timepoints, 30 µl aliquots were withdrawn and stopped by an addition of 3 µl 2% SDS and 3 µl 100 mM EDTA. After the time course, aliquots were treated with proteinase K (0.5 mg ml^−1) for 30 min at 37 °C and extracted with 30 µ chloroform:isoamyl alcohol solution (24:1 vol/vol). The aqueous layers from the assays were mixed with 30 µl STEB and run on 1% agarose TAE gels with 10 µg ml^−1 ethidium bromide at 80 V. Gels were visualized and analysed as described for the supercoiling inhibition assays.

Series [7] concerns the target T3, E. coli gyrase. The series can be described thus: ATP-independent relaxation inhibition. Format: biochemical. Conditions: 200 nM gyrase. The protocol:
E. coli relaxation inhibition assays were conducted in a similar manner to supercoiling inhibition assays with the following modifications: spermidine and ATP were omitted from the assay buffer, supercoiled plasmid (pBR322) was used as DNA substrate and 200 nM E. coli gyrase was added to each reaction. After stopping each reaction with STEB, 3 µl 2% SDS was added and tubes were vigorously vortexed before loading the aqueous phase onto the gel.

Several values for one entry are separate records, joined by “and”; a condition that tells them apart may be missing. Identical values can stand only once. Entries after “also recorded” stand apart in the source; their conditions may differ.

Take `O=S(=O)(NC[C@@H]1CC[C@H](c2ccc(-c3cccnc3)cc2)N1)c1cccc2cnccc12` [LEI-800]: the “haemolytic activity” value in series [1] is recorded as “no haemolytic activity”. Moreover, the IC50 is 96 nM in series [2] and 103 nM in series [3]. Further, the “time kill kinetics, bacterial count” value in series [4] (4xMIC, 0.5 h, n = 1 and n = 2) was 5.021 and 5.23; in series [4] (4xMIC, 1 h), 5.061 and 4.929; in series [4] (4xMIC, 2 h) it was 5.041 and 5.176; in series [4] (4xMIC, 4 h), 3.061 and 3.243; in series [4] (4xMIC, 8 h), 2 and 2.778; in series [4] (4xMIC, 24 h), 5.176 and 4.875. Further, the “time kill kinetics, bacterial count” value in series [4] (8xMIC, 0.5 h) is 5.243 and 5.021; in series [4] (8xMIC, 1 h) it was 4.431 and 4.732; in series [4] (8xMIC, 2 h) it was 4.903 and 5; in series [4] (8xMIC, 4 h) it was 3.13 and 3.079; in series [4] (8xMIC, 8 h), 2.301 and 2; in series [4] (8xMIC, 24 h), 1.99. Further, the “bactericidal activity” value in series [4] (at higher concentrations) is recorded as “bactericidal”. In addition, the “supercoiling inhibition of GyrA S97L variant” value in series [5] is on record as “highly resistant”. Also, the “CIP-mediated DNA cleavage” value in series [6] (5 µM CIP) was “amount of cleaved DNA is reduced; also recorded: clear inhibition”. Moreover, the “Ca2+-mediated DNA cleavage” value in series [6] (5 mM Ca2+) was “amount of cleaved DNA is reduced; also recorded: strongly inhibited”. Besides, the “ATP-independent supercoiling relaxation” value in series [7] was “inhibited”.

As to `O=S(=O)(NC[C@H]1CC[C@@H](c2ccc(-c3ccc(F)nc3)cc2)N1)c1cccc2cnccc12` [LEI-801], the “supercoiling inhibition of GyrA S97L variant” value in series [5] is “highly resistant”.

The IC50 is the concentration that inhibits the measured activity by half.
